In ChEMBL document CHEMBL1158807, “Azadirachtin derivatives from seed kernels of Azadirachta excelsa” (J Nat Prod, 2005):

Key:
Type in all cases: organism-based
Conditions in all cases: in vivo
Plutella xylostella [1] = assay: Toxicity in Plutella xylostella larvae after 24 hrs
Plutella xylostella [2] = assay: Toxicity in Plutella xylostella larvae after 48 hrs
Plutella xylostella [3] = assay: Toxicity in Plutella xylostella larvae after 72 hrs
Plutella xylostella [4] = assay: Toxicity in Plutella xylostella larvae after 96 hrs

Row | SMILES | LD50 (Plutella xylostella [1]) | LD50 (Plutella xylostella [2]) | LD50 (Plutella xylostella [3]) | LD50 (Plutella xylostella [4])
1 | C/C=C(\C)C(=O)O[C@H]1C[C@@H](OC(C)=O)[C@@]2(C(=O)OC)CO[C@H]3[C@@H](O)[C@@](C)([C@]45O[C@@]4(C)[C@H]4C[C@@H]5O[C@@H]5OC=C[C@@]54O)[C@@H]4[C@@H](C(=O)OC)OC[C@@]14[C@@H]32 [AZADIRACHTIN M] | 8.46 µg/g | 4.84 µg/g | 4.23 µg/g | 1.3 µg/g
2 | COC(=O)[C@H]1OC[C@@]23[C@@H](OC(=O)CC(C)C)C[C@@H](OC(C)=O)[C@@]4(C(=O)OC)CO[C@@H]([C@@H](O)[C@@](C)([C@]56O[C@@]5(C)[C@H]5C[C@@H]6O[C@@H]6OC=C[C@@]65O)[C@H]12)[C@@H]43 [AZADIRACHTIN O] | 3.92 µg/g | 1.92 µg/g | 1.19 µg/g | 0.79 µg/g
3 | C/C=C(\C)C(=O)O[C@H]1C[C@@H](OC(C)=O)[C@@]2(C(=O)OC)CO[C@H]3[C@@H](O)[C@@](C)([C@]45O[C@@]4(C)[C@H]4C[C@@H]5O[C@@H]5OC=C[C@@]54O)[C@@H]4[C@@H](O)OC[C@@]14[C@@H]32 | 5.75 µg/g | 4.2 µg/g | 1.38 µg/g | 0.75 µg/g
4 | COC(=O)[C@H]1OC[C@@]23[C@@H](OC(C)=O)C[C@@H](OC(C)=O)[C@@]4(C(=O)OC)CO[C@@H]([C@@H](O)[C@@](C)([C@]56O[C@@]5(C)[C@H]5C[C@@H]6O[C@@H]6OC=C[C@@]65O)[C@H]12)[C@@H]43 [AZADIRACHTIN Q] | 5.95 µg/g | 1.89 µg/g | 1.4 µg/g | 1.1 µg/g
5 | C/C=C(\C)C(=O)O[C@@H]1C[C@H](O)[C@]23CO[C@H](C(=O)OC)[C@H]2[C@](C)([C@]24O[C@@]2(C)[C@H]2C[C@@H]4O[C@@H]4OC=C[C@@]42O)[C@H](O)[C@@H]2OC[C@@]1(C(=O)OC)[C@H]23 [AZADIRACHTIN B] | 4.85 µg/g | 2.26 µg/g | 1.56 µg/g | 1.06 µg/g
6 | C/C=C(\C)C(=O)O[C@H]1C[C@@H](OC(C)=O)[C@@]2(C(=O)OC)CO[C@H]3[C@@H](O)[C@@](C)([C@]45O[C@@]4(C)[C@@H]4C[C@H]5O[C@@H]5OC=C[C@@]54O)[C@H]4[C@]1(CO[C@]4(O)C(=O)OC)[C@@H]32 [AZADIRACHTIN A] | 7.04 µg/g | 4.12 µg/g | 1.28 µg/g | 0.87 µg/g
7 | COC(=O)[C@H]1OC[C@]23[C@@H]1[C@](C)([C@]14O[C@@]1(C)[C@H]1C[C@@H]4O[C@@H]4OC=C[C@@]41O)[C@H](O)[C@@H]1OC[C@](C(=O)OC)([C@H](O)C[C@@H]2O)[C@H]13 [AZADIRACHTOL] | 4.88 µg/g | 3.28 µg/g | 2.35 µg/g | 1.78 µg/g
8 | COC(=O)[C@@]12CO[C@H]3[C@@H](O)[C@@](C)([C@]45O[C@@]4(C)[C@H]4C[C@@H]5O[C@@H]5OC=C[C@@]54O)[C@@H]4[C@@H](O)OC[C@]4([C@@H](OC(=O)CC(C)C)C[C@H]1OC(C)=O)[C@@H]32 [AZADIRACHTIN P] | 2.19 µg/g | 1.73 µg/g | 1.19 µg/g | 0.79 µg/g
9 | C/C=C(\C)C(=O)O[C@H]1C[C@@H](OC(C)=O)[C@@]2(C(=O)OC)CO[C@H]3[C@@H](O)[C@@](C)([C@]45O[C@@]4(C)[C@H]4C[C@@H]5O[C@@H]5OC=C[C@@]54O)[C@@H]4[C@@H](OC(C)=O)OC[C@@]14[C@@H]32 [AZADIRACHTIN L] | 10.27 µg/g | 7.89 µg/g | 5.39 µg/g | 1.92 µg/g
